Assay results as given in patent publication US20260124226A1 (priority 2023, published 2026).

Key:
EEEV = assay: microbe, parasite or virus in culture; format: cell-based, Eastern equine encephalitis virus; conditions: Eastern equine encephalitis virus, Vero 76, EEEV strain FL39-939, Vero 76 cells
Enterovirus-68 = assay: microbe, parasite or virus in culture; format: cell-based, EV-D68; conditions: Enterovirus D, RD
RVFV = assay: microbe, parasite or virus in culture; format: cell-based, Rift Valley fever virus; conditions: Rift Valley fever virus, Huh-7, RVFV strain MP-12, Huh7 cells
DENV2 = assay: microbe, parasite or virus in culture; format: cell-based, Dengue virus 2; conditions: Dengue virus, DENV2, Huh-7
[1] = mouse, in vivo, po, 15 mg/kg
in vitro [2] = conditions: human
in vitro [3] = conditions: Syrian golden hamster
CHIKV = assay: microbe, parasite or virus in culture; format: cell-based, Chikungunya virus; conditions: Chikungunya virus, Huh-7
Tacaribe virus = assay: microbe, parasite or virus in culture; format: cell-based; conditions: Mammarenavirus tacaribeense, Vero
physchem [4] = conditions: simulated gi fluid, pH 1.3
HRV-14 = assay: microbe, parasite or virus in culture; format: cell-based, human rhinovirus; conditions: Rhinovirus B, HRV14
SARS-CoV-2 = assay: microbe, parasite or virus in culture; format: cell-based; conditions: Severe acute respiratory syndrome coronavirus 2, Vero C1008
POWV = assay: microbe, parasite or virus in culture; format: cell-based, Powassan virus; conditions: Powassan virus, BHK-21, POWV(Lineage 1) strain LB, BHK-21 cells
in vitro [5] = conditions: dog
ENTV71 = assay: microbe, parasite or virus in culture; format: cell-based, EV-A71; conditions: Enterovirus A, Vero 76
Junin virus = assay: microbe, parasite or virus in culture; format: cell-based; conditions: Mammarenavirus juninense, Vero
Poliovirus = assay: microbe, parasite or virus in culture; format: cell-based; conditions: Enterovirus C, Vero 76, Poliovirus strain Mahoney, Vero 76 cells
physchem [6] = conditions: simulated gi fluid, pH 5.2
YFV = assay: microbe, parasite or virus in culture; format: cell-based; conditions: Yellow fever virus, Huh-7
RSV = assay: microbe, parasite or virus in culture; format: cell-based; conditions: human respiratory syncytial virus, MA104
Parainfluenza virus 3 = assay: organism not typed; format: cell-based; conditions: MA104
Influenza A H1N1 = assay: microbe, parasite or virus in culture; format: cell-based, influenza A virus; conditions: Influenza A virus, H1N1, MDCK
MEV = assay: microbe, parasite or virus in culture; format: cell-based; conditions: Measles morbillivirus, Vero 76
in vitro [7] = conditions: human; remark: listed apart in the source
in vitro [8] = conditions: human; remark: listed apart in the source
[9] = female, ICR (CD-1), mouse, in vivo, po
MERS = assay: microbe, parasite or virus in culture; format: cell-based, MERS coronavirus; conditions: Middle East respiratory syndrome-related coronavirus, Vero 76
VEEV = assay: microbe, parasite or virus in culture; format: cell-based, Venezuelan equine encephalitis virus; conditions: Venezuelan equine encephalitis virus, Vero 76, VEEV strain TC-83, Vero 76 cells
WNV = assay: microbe, parasite or virus in culture; format: cell-based; conditions: West Nile virus, Vero 76

CC(C)OC(=O)[C@H](C)N[P@](=O)(OC[C@@]1(F)O[C@@H](n2ccc(=O)[nH]c2=O)[C@H](O)[C@@H]1O)Oc1ccccc1 [EIDD-3232, isopropyl ((S)-(((2S,3S,4R,5R)-5-(2,4-dioxo-3,4-dihydropyrimidin-1(2H)-yl)-2-fluoro-3,4-dihydroxytetrahydrofuran-2-yl)methoxy)(phenoxy)phosphoryl)-L-alaninate]
EC50 (EEEV): > 32 µM
EC50 (Enterovirus-68): 18 µM
EC50 (RVFV): 6.4 µM
EC90 (RVFV): 7.4 µM
EC50 (DENV2): 4.2 µM
EC90 (DENV2): 19 µM
Tolerability Summary [1]: Class D
CC50 (in vitro [2]): > 32 µM
CC50 (in vitro [3]): > 32 µM
EC50 (CHIKV): 5.7 µM
EC90 (CHIKV): 4.5 µM
EC90 (Tacaribe virus): 3.9 µM
EC50 (Tacaribe virus; Tacaribe virus strain TRVL 11573, Vero cells): 2.8 µM
half-life (physchem [4]): 4.8 h
EC50 (HRV-14): > 32 µM
EC50 (SARS-CoV-2): > 17 µM
EC50 (POWV): > 32 µM
CC50 (in vitro [5]): > 32 µM
EC50 (ENTV71): > 32 µM
EC90 (Junin virus): 2.2 µM
EC50 (Junin virus; Junin virus strain Candid #1, Vero cells): 2 µM
EC50 (Poliovirus): > 32 µM
half-life (physchem [6]): > 24 h
EC50 (YFV): 15 µM
EC50 (RSV): > 32 µM
EC50 (Parainfluenza virus 3): > 32 µM
EC50 (Influenza A H1N1): 1.3 µM
EC90 (Influenza A H1N1): 1.5 µM
EC50 (MEV): 9.6 µM
CC50 (in vitro [7]): > 32 µM
CC50 (in vitro [8]): > 32 µM
Cmax [9]: 2940 ± 826 nM
EC50 (MERS): > 32 µM
EC50 (VEEV): > 32 µM
EC50 (WNV): > 32 µM
